Reference: patent US6218384A, “3-Oxo-pyrido(1,2-a)benzimidazole-4-carboxyl and 4-oxo-azepino(1,2-a)benzimidazole-5-carboxyl derivatives useful in treating central nervous system disorders” (Ortho-McNeil Pharmaceutical, Inc., priority 1997, dated 2001)
Like-named read-outs stand apart in the source and are kept apart here.

Columns and labels:
[1] = biological target: benzodiazepine site of the GABA-A receptor; assay: Benzodiazepine Receptor Binding Assay (inhibition of 3H-flunitrazepam binding); conditions: ca. 3 nM 3H-flunitrazepam
[2] = Suppression of anxiety (punished licking, conflict test) in the adult male rat; format: in vivo, male rats
Experimental: The anxiolytic activity of selected compounds of the invention was assessed by determining their ability to release (disinhibit) behavior that had been suppressed by punishment (Vogel, J. R. et al. Psychopharmacology 1971, 21, 1). Male rats were deprived of water for 48 hours and were deprived of food for 24 hours prior to testing. After the first 24 hours of water deprivation, they were placed in the conflict chamber for a training period; wherein, they were allowed 200 unpunished licks from a bottle containing tap water. The experiment was run the next day. At the expected time of peak activity, the animals were placed in the chamber and allowed access to tap water. […] Their first lick initiates a 3-min test session. Subsequently,every 20th lick was punished by a 0.2-s shock delivered via the stainless-steel drinking-tube. Vehicle-treated control animals generally were willing to accept a median number of 3 to 8 shocks per test session. […] The Wilcoxon rank-sum test (Mann-WhitneyU-test) was used to test for an increase (p<0.05, 1-tailed) in the median number of shocks in drug-treated groups, compared to a concurrently run vehicle-treated group. The biological assay is considered to be valid if the effects of a known anxiolytic (positive control) are detected, within the same experiment. A compound was considered active if there is a significant difference in the median number of shocks tolerated between the drug-treated group and the control group. The MED was defined as the minimum dose of the drug-treatment as analyzed using the Wilcoxon rank-sum test (SAS; Statistical Analysis System, version 5.16). If the MED value is greater than 10, an active dose of the compound being tested had not been determined.

[3] = Suppression of metrazol-induced convulsions; format: in vivo, male CD1 mice; conditions: mice; for ED50: Mus musculus, 0.5 h; for Metrazol (ip) ED50: 30 min
Experimental: Selected compounds of the invention were tested for their ability to reduce metrazol-induced convulsions in mice (Swinyard, E. A. J. Am. Pharm Assoc. 1949, 38, 201). Male CD1 mice, were fasted at least 16 hours, were divided into equal groups and test compounds or vehicle were administered parenterally. Water was not withheld except during the period of observations. At the time of suspected peak activity, anti-pentylenetetrazol (anti-metrazol) activity was evaluated by the subcutaneous administration of the CD90 dose of metrazol (the dose of metrazol was determined from the dose-response curve producing clonic convulsions in 90% of animals that received the corresponding vehicle for this experiment). Metrazol was dissolved in 0.9% sodium chloride solution, and its dose volume was 10 ml/kg. Animals were housed individually for observation of clonic convulsions, tonic convulsions and death for a period of 30 min. Test compounds that blocked the clonic seizure component of the convulsion in at least 50% of the animals were considered active. The biological assay was considered to be valid if the effects of a known anticonvulsant (positive control) were detected, within the same experiment. Activity was reported as percent reduction of clonic convulsions from the vehicle group. The ED50 values of active compounds were calculated by the method of probits (Finney, D. J. 1971. Probit Analysis. London: Cambridge University Press) and are listed in Tables 1 to 5.

[4] = Table 5, minimum effective dose, read-out: Conflict MED
[5] = Table 5, parenteral, clonic convulsions, read-out: Antimetrazol ED50
[6] = Table 1, 25° C., 10-20 min, >10,000 = not active
[7] = Table 1, ip, minimum effective dose, >10 = active dose not determined, read-out: Conflict (ip) MED
[8] = Table 1, ip, clonic convulsions after sc CD90 metrazol, >30 = active dose not determined, read-out: Metrazol (ip) ED50
[9] = Table 1, ip, minimum effective dose, >10 = active dose not determined
[10] = Table 1, ip, clonic convulsions after sc CD90 metrazol, >30 = active dose not determined
[11] = Table 3, minimum effective dose, read-out: Conflict MED
[12] = Table 3, parenteral, clonic convulsions, read-out: Antimetrazol ED50

**Q.** Which IC50 ([1]; Table 5) does the source give for `O=C1CCCN2C(=C1C(=O)Nc1ccccc1F)Nc1ccccc12` [compound 146] here?
**A.** 0.0031 µM

**Q.** What about the minimal effective dose [2, 4] of the same compound?
**A.** 10 mg/kg

**Q.** What about the ED50 [3, 5] of the same compound?
**A.** 1 to 10 mg/kg

**Q.** Which IC50 [1, 6] does the source give for `O=C1CCN2C(=C1C(=O)Nc1cccc(C(F)(F)F)c1)Nc1ccccc12` [compound 15] here?
**A.** 0.3 µM

**Q.** What about the minimal effective dose [2, 7] of the same compound?
**A.** > 10 mg/kg

**Q.** And the ED50 [3, 8]?
**A.** > 10 mg/kg

**Q.** Which IC50 [1, 6] does the source give for `O=C1CCN2C(=C1C(=O)Nc1c(F)cc(F)cc1F)Nc1cc(F)ccc12` [compound 107] here?
**A.** 0.003 µM

**Q.** What about the minimal effective dose [2, 7] of the same compound?
**A.** 0.3 mg/kg

**Q.** What about the ED50 [3, 8] of the same compound?
**A.** 1 mg/kg

**Q.** For “1,2-Dihydro-5-ethyl-3-oxo-N-(2-fluorophenyl)-pyrido(1,2-a)benzimidazole-4-carboxamide [CP 123]”, which IC50 [1, 6] is on record?
**A.** 0.62 µM

**Q.** And the “Conflict (ip) MED” value [2, 9]?
**A.** 1 mg/kg

**Q.** What about the “Metrazol (ip) ED50” value [3, 10] of the same compound?
**A.** 5 mg/kg

**Q.** Which results are given for `CN1C2=C(C(=O)Nc3c(F)cc(F)cc3F)C(=O)CCN2c2ccccc21` [compound 135]?
**A.** IC50 ([1]; Table 3): 0.013 µM; minimal effective dose [2, 11]: > 10 mg/kg; ED50 [3, 12]: 10 mg/kg

**Q.** Which IC50 [1, 6] does the source give for `O=C1CCN2C(=C1C(=O)Nc1ccc3ncsc3c1)Nc1ccccc12` [compound 72] here?
**A.** 10 µM

**Q.** What about the minimal effective dose [2, 7] of the same compound?
**A.** < 10 mg/kg

**Q.** And the ED50 [3, 8]?
**A.** > 10 mg/kg

**Q.** With `O=C1CCCN2C(=C1C(=O)Nc1ccccc1)Nc1ccccc12` [compound 143] as the compound, how does the IC50 ([1]; Table 5) read?
**A.** 0.104 µM

**Q.** What about the minimal effective dose [2, 4] of the same compound?
**A.** 10 mg/kg

**Q.** And the ED50 [3, 5]?
**A.** > 10 mg/kg

**Q.** What does the source list for `O=C1CCN2C(=C1C(=O)Nc1cccc3ccoc13)Nc1ccccc12` [compound 51]?
**A.** IC50 [1, 6]: 0.12 µM; minimal effective dose [2, 7]: 10 mg/kg; ED50 [3, 8]: > 10 mg/kg

**Q.** Which IC50 [1, 6] does the source give for `O=C1CCN2C(=C1C(=O)Nc1ccncc1)Nc1cc(F)ccc12` [compound 106] here?
**A.** 0.042 µM

**Q.** And the minimal effective dose [2, 7]?
**A.** 3 mg/kg

**Q.** What about the ED50 [3, 8] of the same compound?
**A.** 3 mg/kg

**Q.** With `NS(=O)(=O)c1ccc(NC(=O)C2=C3Nc4ccccc4N3CCC2=O)cc1` [compound 61] as the compound, how does the IC50 [1, 6] read?
**A.** 10 µM

**Q.** What about the minimal effective dose [2, 7] of the same compound?
**A.** 10 mg/kg

**Q.** And the ED50 [3, 8]?
**A.** > 10 mg/kg

**Q.** What does the source list for `O=C(Nc1c(F)cccc1F)c1c(=O)ccn2c1[nH]c1ccccc12` [compound 141]?
**A.** IC50 ([1]; Table 4): < 0.001 µM; minimal effective dose ([2]; Table 4, minimum effective dose, read-out: Conflict MED): 0.3 mg/kg; ED50 ([3]; Table 4, parenteral, clonic convulsions, read-out: Antimetrazol ED50): < 0.1 mg/kg

**Q.** With `COc1ccc2c(c1)NC1=C(C(=O)NC3CCCCC3)C(=O)CCN12` [compound 37] as the compound, how does the IC50 [1, 6] read?
**A.** 0.8 µM

**Q.** What about the minimal effective dose [2, 7] of the same compound?
**A.** 10 mg/kg

**Q.** What about the ED50 [3, 8] of the same compound?
**A.** 10 mg/kg

**Q.** For `CCCN1C2=C(C(=O)Nc3ccccc3F)C(=O)CCN2c2ccccc21` [compound 130], which IC50 ([1]; Table 3) is on record?
**A.** < 0.001 µM

**Q.** And the minimal effective dose [2, 11]?
**A.** < 0.3 mg/kg

**Q.** And the ED50 [3, 12]?
**A.** 0.1 mg/kg

**Q.** What does the source list for “N-(4-Pyridyl)-1,2-dihydro-3-hydroxypyrido-(1,2-a)benzimidazole-4-carboxamide [CP 35]”?
**A.** IC50 [1, 6]: 0.0091 µM; Conflict (ip) MED [2, 9]: 10 mg/kg; Metrazol (ip) ED50 [3, 10]: 3 mg/kg

**Q.** What does the source list for `N#Cc1ccc(NC(=O)C2=C3Nc4ccccc4N3CCC2=O)cc1` [compound 54]?
**A.** IC50 [1, 6]: 13 µM; minimal effective dose [2, 7]: < 10 mg/kg; ED50 [3, 8]: > 10 mg/kg

**Q.** For `O=C1CCN2C(=C1C(=O)Nc1cccc3cnccc13)Nc1ccccc12` [compound 65], which IC50 [1, 6] is on record?
**A.** 0.77 µM

**Q.** And the minimal effective dose [2, 7]?
**A.** > 10 mg/kg

**Q.** And the ED50 [3, 8]?
**A.** 10 mg/kg

**Q.** What does the source list for `CCN1C2=C(C(=O)Nc3ccncc3)C(=O)CCN2c2ccccc21` [compound 133]?
**A.** IC50 ([1]; Table 3): 0.08 µM; minimal effective dose [2, 11]: 3 mg/kg; ED50 [3, 12]: 3 mg/kg

**Q.** For `O=C1CCN2C(=C1C(=O)Nc1ccncn1)Nc1ccccc12` [compound 39], which IC50 [1, 6] is on record?
**A.** 0.48 µM

**Q.** And the minimal effective dose [2, 7]?
**A.** 10 mg/kg

**Q.** What about the ED50 [3, 8] of the same compound?
**A.** > 10 mg/kg

**Q.** What does the source list for `CN(C)c1ccc(NC(=O)C2=C3Nc4cc(Cl)ccc4N3CCC2=O)cc1` [compound 80]?
**A.** IC50 [1, 6]: 0.22 µM; minimal effective dose [2, 7]: > 10 mg/kg; ED50 [3, 8]: 10 mg/kg

**Q.** Which IC50 [1, 6] does the source give for `O=C1CCN2C(=C1C(=O)Nc1nncs1)Nc1ccccc12` [compound 69] here?
**A.** 0.3 µM

**Q.** What about the minimal effective dose [2, 7] of the same compound?
**A.** > 10 mg/kg

**Q.** And the ED50 [3, 8]?
**A.** > 10 mg/kg

**Q.** What does the source list for `O=C1CCN2C(=C1C(=O)Nc1c(F)cccc1F)Nc1cc(F)ccc12` [compound 109]?
**A.** IC50 [1, 6]: 0.0013 µM; minimal effective dose [2, 7]: 3 mg/kg; ED50 [3, 8]: 0.3 mg/kg

**Q.** With `O=C1CCN2C(=C1C(=O)Nc1ccccc1F)N(Cc1ccccc1)c1ccccc12` [compound 128] as the compound, how does the IC50 ([1]; Table 3) read?
**A.** 0.088 µM

**Q.** And the minimal effective dose [2, 11]?
**A.** > 10 mg/kg

**Q.** And the ED50 [3, 12]?
**A.** 1 mg/kg
